From patent publication US7435820B2, “Substituted tetrahydro-1H-pyrazolo [3,4-c]pyridines compositions comprising them, and use” (Aventis Pharma S.A., priority 2003, dated 2008)
Where two headings read alike, the source gives them in different places.

Tests used:
human Tie2 = target: T1, human Tie2 (Homo sapiens, UniProt Q02763); assay: Tie2 kinase inhibition: phosphorylation of GST-PLC (SH2-SH3 fragments) by GST-Tie2, 33P-ATP flashplate; assay type: biochemical
T1 construct: human Tie2 corresponding to amino acids 776-1124 of the intracellular domain was generated by PCR; made in house; host or cells: baculovirus expression system (vector pFastBacGT)
T1 sequence (Q02763 776-1124): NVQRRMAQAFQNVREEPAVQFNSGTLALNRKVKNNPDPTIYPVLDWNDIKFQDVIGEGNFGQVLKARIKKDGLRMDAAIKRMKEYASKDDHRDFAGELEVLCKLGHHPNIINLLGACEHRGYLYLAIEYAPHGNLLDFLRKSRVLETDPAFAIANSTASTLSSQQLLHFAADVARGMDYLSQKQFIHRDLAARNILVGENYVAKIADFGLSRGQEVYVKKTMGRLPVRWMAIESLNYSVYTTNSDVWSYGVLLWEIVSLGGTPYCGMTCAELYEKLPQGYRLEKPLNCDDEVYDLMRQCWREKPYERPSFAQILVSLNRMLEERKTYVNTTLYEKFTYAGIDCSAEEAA
Description: The coding sequence of human Tie2 corresponding to amino acids 776-1124 of the intracellular domain was generated by PCR using the cDNA isolated from human placenta as model. This sequence was introduced into a baculovirus expression vector pFastBacGT in the form of a GST fusion protein.
The inhibitory effect of the molecules is determined in an assay for phosphorylation of PLC by Tie2 in the presence of GST-Tie2 purified to approximately 80% homogeneity. The substrate is made up of the SH2-SH3 fragments of PLC, the latter being expressed in the form of a GST fusion protein.
The kinase activity of Tie2 is measured in a 20 mM MOPS buffer, pH 7.2, containing 10 mM MgCl2, 10 mM MnCl2, 1 mM DTT and 10 mM of glycerophosphate. A reaction mixture made up of 70 μl of kinase buffer containing 100 ng of GST-Tie2 enzyme per well is placed in a flashplate 96-well plate kept on ice. 10 μl of the molecule to be tested, diluted in DMSO, at a concentration of at most 10% are then added. For a given concentration, each measurement is carried out in quadruplicate. The reaction is initiated by adding 20 μl of solution containing 2 μg of GST-PLC, 2 μM of cold ATP and 1 μCi of ^33P[ATP]. After incubation for 1 hour at 37° C., the reaction is stopped by adding 1 volume (100 μl) of 200 mM EDTA. After removal of the incubation buffer, the wells are washed three times with 300 μl of PBS. The radioactivity is measured on a Wallac MicroBeta 1450.
The inhibition of the Tie2 activity is calculated and expressed as percentage inhibition with respect to the control activity determined in the absence of compound.

human KDR enzyme = target: T2, human KDR enzyme (Homo sapiens, UniProt P35968); assay: KDR kinase inhibition: phosphorylation of PLCγ SH2-SH3 substrate by KDR enzyme, 33P-ATP scintillation plate; assay type: biochemical
T2 construct: The cytoplasmic domain of the human KDR enzyme was cloned in GST fusion form; GST; made in house; host or cells: SF21 insect cells (baculovirus, pFastBac)
T2 sequence (P35968 786-1356 limits assumed): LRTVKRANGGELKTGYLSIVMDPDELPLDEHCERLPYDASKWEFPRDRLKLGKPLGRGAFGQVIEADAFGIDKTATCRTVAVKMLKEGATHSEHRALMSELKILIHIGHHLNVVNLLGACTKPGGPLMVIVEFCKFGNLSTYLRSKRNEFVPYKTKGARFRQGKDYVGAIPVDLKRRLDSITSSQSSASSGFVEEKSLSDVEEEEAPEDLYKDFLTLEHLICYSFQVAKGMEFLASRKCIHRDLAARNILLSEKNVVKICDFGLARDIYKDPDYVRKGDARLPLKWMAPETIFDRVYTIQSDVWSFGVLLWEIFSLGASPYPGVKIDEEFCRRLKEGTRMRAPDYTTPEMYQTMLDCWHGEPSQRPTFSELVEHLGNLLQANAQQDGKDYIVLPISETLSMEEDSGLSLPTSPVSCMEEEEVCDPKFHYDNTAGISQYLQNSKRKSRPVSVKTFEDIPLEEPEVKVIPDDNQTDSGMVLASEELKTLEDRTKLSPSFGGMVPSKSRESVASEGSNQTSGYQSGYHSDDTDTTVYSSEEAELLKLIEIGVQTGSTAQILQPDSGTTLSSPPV
Description: The inhibitory effect of the compounds is determined in an assay for phosphorylation of substrate by the KDR enzyme in vitro using a scintillation technique (96-well plate, NEN).
The cytoplasmic domain of the human KDR enzyme was cloned in GST fusion form into the baculovirus expression vector pFastBac. The protein was expressed in SF21 cells and purified to approximately 60% homogeneity. The KDR kinase activity is measured in 20 mM MOPS, 10 mM MgCl2, 10 mM MnCl2, 1 mM DTT, 2.5 mM EGTA, 10 mM b-glycerophosphate, pH=7.2, in the presence of 10 mM MgCl2, 100 μM Na3VO4 and 1 mM NaF. 10 μl of the compound are added to 70 μl of kinase buffer containing 100 ng of KDR enzyme at 4° C. The reaction is initiated by adding 20 μl of solution containing 2 μg of substrate (SH2-SH3 fragment of PLCγ expressed in the form of an GST fusion protein), 2 μCi γ ^33P[ATP] and 2 μM cold ATP. After incubation for 1 hour at 37° C., the reaction is stopped by adding 1 volume (100 μl) of 200 mM EDTA. The incubation buffer is removed and the wells are washed three times with 300 μl of PBS. The radioactivity is measured in each well using a Top Count NXT (Packard) radioactivity counter.
The background noise is determined by measuring the radioactivity in four different wells containing the radioactive ATP and the substrate alone.
A total activity control is measured in four different wells containing all the reagents (γ^33P-[ATP], KDR and PLC-γ substrate) but in the absence of compound.
The inhibition of the KDR activity with the compound of the invention is expressed as percentage inhibition of the control activity determined in the absence of compound.
The compound SU5614 (Calbiochem) (1 μM) is included in each plate as inhibition control.

[1] = Assay 1, read-out: Tie2 % Inhib at 10 μM (FRX) Assay 1
[2] = Assay 2, read-out: Tie2 % Inhib at 10 μM (FRX) Assay 2
[3] = Assay 1, read-out: KDR % Inhib at 10 μM Assay 1
[4] = Assay 2, read-out: KDR % Inhib at 10 μM Assay 2

## Cc1cc2nc(-c3[nH]nc4c3CCN(C(=O)c3ccccc3Nc3cccc(Cl)c3C)C4)[nH]c2cc1C [Example P-31375-112-10]
Human Tie2; [1]
  inhibition at 10 µM: 90.6%
Human Tie2; [2]
  inhibition at 10 µM: 87.9%
Human KDR enzyme; [3]
  inhibition at 10 µM: 42.3%
Human KDR enzyme; [4]
  inhibition at 10 µM: 28.7%

## Cc1cc2nc(-c3[nH]nc4c3CCN(S(=O)(=O)c3cccc(Cl)c3)C4)[nH]c2cc1C [Chemistry 32]
Human Tie2; read-out: Tie2 % Inhib. 10 μM
  inhibition at 10 µM: 91.5%
Human KDR enzyme; read-out: KDR % Inhib. 10 μM
  inhibition at 10 µM: 46.5%

## Cc1cc2nc(-c3[nH]nc4c3CCN(C(=O)c3ccccc3OCc3ccccc3)C4)[nH]c2cc1C [Example P-31378-112-9]
Human Tie2; [1]
  inhibition at 10 µM: 82.6%
Human Tie2; [2]
  inhibition at 10 µM: 85.9%
Human KDR enzyme; [3]
  inhibition at 10 µM: 53.2%
Human KDR enzyme; [4]
  inhibition at 10 µM: 45.1%

## COc1cccc(S(=O)(=O)N2CCc3c(n[nH]c3-c3nc4cc(C)c(C)cc4[nH]3)C2)c1 [Chemistry 38]
Human Tie2; read-out: Tie2 % Inhib. 10 μM
  inhibition at 10 µM: 84.6%
Human KDR enzyme; read-out: KDR % Inhib. 10 μM
  inhibition at 10 µM: 20.9%

## Cc1cc2nc(-c3[nH]nc4c3CCN(C(=O)NCc3ccccc3)C4)[nH]c2cc1C [Chemistry 60]
Human Tie2; read-out: Tie2 % Inhib. 10 μM
  inhibition at 10 µM: 64.8%
Human KDR enzyme; read-out: KDR % Inhib. 10 μM
  inhibition at 10 µM: 33.5%

## Cc1cc2nc(-c3[nH]nc4c3CCN(C(=O)CC(C)C)C4)[nH]c2cc1C [Chemistry 49]
Human Tie2; read-out: Tie2 % Inhib. 10 μM
  inhibition at 10 µM: 84.8%
Human KDR enzyme; read-out: KDR % Inhib. 10 μM
  inhibition at 10 µM: 12.2%

## Cc1cc2nc(-c3[nH]nc4c3CCN(S(=O)(=O)c3ccccc3Cl)C4)[nH]c2cc1C [Chemistry 31]
Human Tie2; read-out: Tie2 % Inhib. 10 μM
  inhibition at 10 µM: 93.2%
Human KDR enzyme; read-out: KDR % Inhib. 10 μM
  inhibition at 10 µM: 45.7%

## Cc1cc2nc(-c3[nH]nc4c3CCNC4)[nH]c2cc1C [Chemistry 22]
Human Tie2; read-out: Tie2 % Inhib. 10 μM
  inhibition at 10 µM: 24.9%
Human KDR enzyme; read-out: KDR % Inhib. 10 μM
  inhibition at 10 µM: 3.65%

## CCS(=O)(=O)N1CCc2c(n[nH]c2-c2nc3cc(C)c(C)cc3[nH]2)C1 [Chemistry 28]
Human Tie2; read-out: Tie2 % Inhib. 10 μM
  inhibition at 10 µM: 78.5%
Human KDR enzyme; read-out: KDR % Inhib. 10 μM
  inhibition at 10 µM: 16.5%

## CCCCC(=O)N1CCc2c(n[nH]c2-c2nc3cc(C)c(C)cc3[nH]2)C1 [Chemistry 56]
Human Tie2; read-out: Tie2 % Inhib. 10 μM
  inhibition at 10 µM: 92.5%
Human KDR enzyme; read-out: KDR % Inhib. 10 μM
  inhibition at 10 µM: 46.6%

## Cc1cc2nc(-c3[nH]nc4c3CCN(C(=O)c3ccccc3NC(=O)c3ccc(Cl)cc3)C4)[nH]c2cc1C [Example P-31378-112-15]
Human Tie2; [1]
  inhibition at 10 µM: 80.1%
Human Tie2; [2]
  inhibition at 10 µM: 83.8%
Human KDR enzyme; [3]
  inhibition at 10 µM: 75.5%
Human KDR enzyme; [4]
  inhibition at 10 µM: 77.4%

## Cc1cc2nc(-c3[nH]nc4c3CCN(S(=O)(=O)c3ccc(Cl)cc3)C4)[nH]c2cc1C [Chemistry 26]
Human Tie2; read-out: Tie2 % Inhib. 10 μM
  inhibition at 10 µM: 89.1%
Human KDR enzyme; read-out: KDR % Inhib. 10 μM
  inhibition at 10 µM: 27.8%

## Cc1cc2nc(-c3[nH]nc4c3CCN(C(=O)c3ccc(Cl)cc3)C4)[nH]c2cc1C [Chemistry 48]
Human Tie2; read-out: Tie2 % Inhib. 10 μM
  inhibition at 10 µM: 83.8%
Human KDR enzyme; read-out: KDR % Inhib. 10 μM
  inhibition at 10 µM: 42%

## Cc1cc2nc(-c3[nH]nc4c3CCN(C(=O)Nc3cccc(Cl)c3)C4)[nH]c2cc1C [Chemistry 62]
Human Tie2; read-out: Tie2 % Inhib. 10 μM
  inhibition at 10 µM: 21%
Human KDR enzyme; read-out: KDR % Inhib. 10 μM
  inhibition at 10 µM: 12.8%

## Cc1cc2nc(-c3[nH]nc4c3CCN(C(=O)c3cccnc3)C4)[nH]c2cc1C [Chemistry 4]
Human KDR enzyme; read-out: KDR % Inhib. 10 μM
  inhibition at 10 µM: 25.4%

## Cc1cc2nc(-c3[nH]nc4c3CCN(c3ccc(NS(=O)(=O)c5cccs5)cn3)C4)[nH]c2cc1C
Human Tie2; read-out: Tie2 % Inhib. 10 μM
  inhibition at 10 µM: 100%

## COc1cc(C)ccc1S(=O)(=O)Nc1ccc(N2CCc3c(n[nH]c3-c3nc4cc(C)c(C)cc4[nH]3)C2)nc1
Human Tie2; read-out: Tie2 % Inhib. 10 μM
  inhibition at 10 µM: 98%

## Cc1cc2nc(-c3[nH]nc4c3CCN(Cc3cccc(Cl)c3)C4)[nH]c2cc1C [Chemistry 5]
Human KDR enzyme; read-out: KDR % Inhib. 10 μM
  inhibition at 10 µM: 88.8%

## Cc1cc2nc(-c3[nH]nc4c3CCN(C(=O)NCCc3ccccc3)C4)[nH]c2cc1C [Chemistry 2]
Human KDR enzyme; read-out: KDR % Inhib. 10 μM
  inhibition at 10 µM: 77.2%

## Cc1cc2nc(-c3[nH]nc4c3CCN(c3ccc(NS(=O)(=O)c5ccccc5Cl)cn3)C4)[nH]c2cc1C
Human Tie2; read-out: Tie2 % Inhib. 10 μM
  inhibition at 10 µM: 100%

## Cc1cc2nc(-c3[nH]nc4c3CCN(S(C)(=O)=O)C4)[nH]c2cc1C [Chemistry 3]
Human KDR enzyme; read-out: KDR % Inhib. 10 μM
  inhibition at 10 µM: 78.1%
